Patent US20190382839A1, “[…]” (Bayer Pharma Aktiengesellschaft, priority 2016, published 2019)
Like-named read-outs stand apart in the source and are kept apart here.

System: NHL patients (FL, MZL, MCL, DLBCL, transformed indolent lymphoma, CLL)
Description: Best response status and progression-free survival (hereinafter referred to as “PFS”) from independent review assessment were used for gene expression analysis. A total number of 24 patients including 3 complete responders, 1 confirmed (hereinafter referred to as “CR”) and 2 unconfirmed (hereinafter referred to as “CRu”) and 5 partial responders (hereinafter referred to as “PR”), 11 stable diseases (hereinafter referred to as “SD”) and 5 progressive diseases (hereinafter referred to as “PD”) with follicular lymphoma (hereinafter referred to as “FL”), marginal zone lymphoma (hereinafter referred to as “MZL”), mantle cell lymphoma (“MCL”), diffuse large B-cell lymphoma (hereinafter referred to as “DLBCL”), transformed indolent lymphoma or CLL who had baseline RNA expression profiling data of sufficient quantity and quality were used for gene expression analysis as listed in Table 1 (given in the experimental section).
Bioinformatics and statistical analyses were done for all 24 NHL patients. […] For GSEA, 34 gene sets (vide Tables 2 and 3) sharing key biological function/process in apoptosis, B-cell receptor (hereinafter referred to as “BCR”) signaling, IL6/JAK/STAT3, cytokine/chemokine, MAPK, MYC, MYD88, NFAT, NFkB, NOTCH, PI3K or tumor microenvironment (refs 3 and 4) were selected and generated.
A weighted gene expression score (hereinafter referred to as “WGS”) reflecting the overall expression level for each gene set was generated from logistic regression and Cox proportional hazards models to assess the association with response status (best-response-WGS) and PFS (PFS-WGS), respectively.
Both the best-response-WGS as well as the PFS-WGS were in turn used in logistic regression or Cox regression models to assess the association of either WGS with the endpoints. Moreover, the raw best-response WGS was used to compute non-cross validated AUC estimates for responder (CR+PR) and non-responder (SD+PD) classifications.

COc1c(OCCCN2CCOCC2)ccc2c1N=C(NC(=O)c1cnc(N)nc1)N1CCN=C21 [copanlisib]
median PFS (CSTB, median gene expression level as cutoff, first printed group (high expression, shorter PFS)): 74 days | number of patients with CR (of the 24 analyzable patients): 3 | number of patients with PD (of the 24 analyzable patients): 5 | number of patients with PR (of the 24 analyzable patients): 5 | number of patients with SD (of the 24 analyzable patients): 11 | objective response rate (patients with high BCR pathway WGS compared to low): increased | objective response rate (patients with high PI3K pathway WGS compared to low): increased
